Source: patent publication US10787448B2, “Indolizino [3,2-C] quinoline-based fluorescent probe” (SEOUL NATIONAL UNIVERSITY R & DB FOUNDATION, priority 2015, dated 2020)
Where “and” joins values, the source holds several entries; their conditions need not be identical. Equal entries are not always repeated. Structures can show the parent of a compound that is named as a salt. Values belong to the compound of their own block, whether it stands above or below them.

Assay: Analysis of optical characteristics (absorption, fluorescence emission, quantum yield) in solvents
Type: physicochemical
Conditions: for peak emission (λmax): aqueous solution (H2O); for Relative fluorescence Emission Intensitynorm: normalized fluorescence intensity; for Relative fluorescence Emission Intensitynorm / Fluorescence Emission Intensity / Peak emission wavelength λmax em(nm): H2O at 2 μM; for Peak emission wavelength λmax em(nm): excited at the longest absorption maxima
Method: Fluorescence emission spectra were obtained at 20° C. using a JASCO FP-6500 spectrofluorometer, a 10 mM stock solution prepared by dissolving an indolizino[3,2-c]quinoline compound in DMSO was diluted in a solvent. […] Absorption spectra were recorded at room temperature using a Perkin Elmer Lamda 20 UV/VIS spectrometer. […]
Further, the compounds (excluding Entry #51-57, etc.) of Formula 1 were subjected to spectrum analyses in various solvents, and the results are shown in Tables 6 and 7, and FIGS. 5C and 5D.

- λex(nm) (Table 6): 402 nm and 422 nm
- peak emission (λmax): 543 nm
SMILES: c1cc(-c2nc3ccccc3c3cc4ccccn4c23)nc(-c2nc3ccccc3c3cc4ccccn4c23)c1 [IQ 5-D, 2,6-bis(indolizino[3,2-c]quinolin-6-yl)pyridine]

- λex(nm) (Table 6): 458 nm
SMILES: COc1ccc(-c2c3c(cc4ccccn43)c3ccccc3[n+]2C)cc1 [IQ 6-S1-Me, 6-(4-methoxyphenyl)-5-methylindolizino[3,2-c]quinolin-5-ium methyl sulfate]
- solvent-dependent (environment-sensitive) tendency of the emission: hardly showed an environment-sensitive optical characteristic

- λex(nm) (Table 7): 415 nm
SMILES: C(=C\c1nc2ccccc2c2cc3ccccn3c12)/c1ccccc1 [IQ-B4, (E)-6-styrylindolizino[3,2-c]quinoline]

- λex(nm) (Table 7): 427 nm
- maximum wavelength of fluorescence (Tris buffer (pH 7.5)): 531 nm
SMILES: COc1ccc(-c2nc3ccccc3c3cc4cc(C=O)ccn4c23)cc1 [IQ-B11, 6-(4-methoxyphenyl)indolizino[3,2-c]quinoline-10-carbaldehyde]

- Abs maximum λ for UV: 344 nm
- Stokes shift: ≥ 180 nm
SMILES: COc1ccc(/C=C/c2nc3ccccc3c3cc4ccccn4c23)cc1 [IQ-B12, (E)-6-(4-methoxystyryl)indolizino[3,2-c]quinoline]

- λex(nm) (Table 7): 422 nm
SMILES: CN(/N=C/c1nc2ccccc2c2cc3ccccn3c12)c1ccccc1 [IQ-B16, (E)-6-((2-methyl-2-phenylhydrazineylidene)methyl)indolizino[3,2-c]quinoline]

- fluorescence (intensity, in words): high fluorescence in DMSO
- λex(nm) (Table 7): 434 nm
SMILES: COc1ccc(-c2nc3ccccc3c3cc4cc(-c5ccc(C=O)cc5)ccn4c23)cc1 [IQ-B23, 4-(6-(4-methoxyphenyl)indolizino[3,2-c]quinolin-10-yl)benzaldehyde]

- fluorescence (intensity, in words): high fluorescence in DMSO
- λex(nm) (Table 7): 444 nm
SMILES: COc1ccc(-c2nc3ccccc3c3cc4cc(/C=C/C=O)ccn4c23)cc1 [IQ-B25, (E)-3-(6-(4-methoxyphenyl)indolizino[3,2-c]quinolin-10-yl)acrylaldehyde]

- λex(nm) (Table 7): 427 nm
SMILES: COc1ccc(-c2nc3ccccc3c3cc4cc(-c5ccc(C(=O)Nc6ccccc6)cc5)ccn4c23)cc1 [IQ-B35, 4-(6-(4-methoxyphenyl)indolizino[3,2-c]quinolin-10-yl)-N-phenylbenzamide]

- λex(nm) (Table 7): 422 nm
SMILES: CCN(CC)C(=O)c1ccc(-c2ccn3c(c2)cc2c4ccccc4nc(-c4ccc(OC)cc4)c23)cc1 [IQ-B36, N,N-diethyl-4-(6-(4-methoxyphenyl)indolizino[3,2-c]quinolin-10-yl)benzamide]

- λex(nm) (Table 7): 423 nm
SMILES: COc1ccc(-c2nc3ccccc3c3cc4cc(-c5ccc6ccccc6c5)ccn4c23)cc1 [IQ-B39, 6-(4-methoxyphenyl)-10-(naphthalen-2-yl)indolizino[3,2-c]quinoline]

- λex(nm) (Table 7): 431 nm
SMILES: COc1ccc(-c2nc3ccccc3c3cc4cc(-c5ccc(C#N)cc5)ccn4c23)cc1 [IQ-B43, 4-(6-(4-methoxyphenyl)indolizino[3,2-c]quinolin-10-yl)benzonitrile]

- λex(nm) (Table 7): 436 nm
SMILES: COc1ccc(-c2nc3ccccc3c3cc4cc(/C=C/C#N)ccn4c23)cc1 [IQ-B44, (E)-3-(6-(4-methoxyphenyl)indolizino[3,2-c]quinolin-10-yl)acrylonitrile]

- quantum yield (Φ) (DW, standard Rhodamine 6G): 0.000
- quantum yield (Φ) (EtOH, standard Coumarin 153): 0.000
- Relative fluorescence Emission Intensitynorm: 0.00
SMILES: O=[N+]([O-])c1ccc(-c2nc3ccccc3c3cc4ccccn4c23)cc1 [compound 2]

- Maximum absorption wavelength λmax abs(nm): 400 nm
- quantum yield (Φ) (DW, standard Rhodamine 6G): 0.005
- quantum yield (Φ) (EtOH, standard Coumarin 153): 0.196
- Fluorescence Emission Intensity: 4.7
- Peak emission wavelength λmax em(nm): 532 nm
- Relative fluorescence Emission Intensitynorm: 0.02
SMILES: c1ccc(-c2nc3ccccc3c3cc4ccccn4c23)nc1 [compound 5]

- quantum yield (Φ) (DW, standard Rhodamine 6G): 0.026
- quantum yield (Φ) (EtOH, standard Coumarin 153): 0.756
- Fluorescence Emission Intensity: 60.8
- Peak emission wavelength λmax em(nm): 527.5 nm
- Relative fluorescence Emission Intensitynorm: 0.26
SMILES: COc1cc(OC)cc(-c2nc3ccccc3c3cc4ccccn4c23)c1 [compound 7]

- Maximum absorption wavelength λmax abs(nm): 407 nm
- quantum yield (Φ) (DW, standard Rhodamine 6G): 0.006
- quantum yield (Φ) (EtOH, standard Coumarin 153): 0.111
- Fluorescence Emission Intensity: 7.5
- Peak emission wavelength λmax em(nm): 536 nm
- Relative fluorescence Emission Intensitynorm: 0.03
SMILES: Clc1ccc(-c2nc3ccccc3c3cc4ccccn4c23)s1 [compound 11]

- Maximum absorption wavelength λmax abs(nm): 395 nm
- quantum yield (Φ) (DW, standard Rhodamine 6G): 0.131
- quantum yield (Φ) (EtOH, standard Coumarin 153): 0.623
- Fluorescence Emission Intensity: 11.8
- Peak emission wavelength λmax em(nm): 531.5 nm
- Relative fluorescence Emission Intensitynorm: 0.05
SMILES: Cc1cccn2c1cc1c3ccccc3nc(-c3ccc(Br)cc3)c12 [compound 12]

- quantum yield (Φ) (DW, standard Rhodamine 6G): 0.024
- quantum yield (Φ) (EtOH, standard Coumarin 153): 0.654
- Fluorescence Emission Intensity: 9.4
- Peak emission wavelength λmax em(nm): 535.5 nm
- Relative fluorescence Emission Intensitynorm: 0.04
SMILES: Cc1ccc(-c2nc3ccccc3c3cc4c(C)cccn4c23)cc1 [compound 15]

- quantum yield (Φ) (DW, standard Rhodamine 6G): 0.367
- quantum yield (Φ) (EtOH, standard Coumarin 153): 0.468
- Fluorescence Emission Intensity: 143.5
- Peak emission wavelength λmax em(nm): 493 nm
- Relative fluorescence Emission Intensitynorm: 0.62
SMILES: COC(=O)c1c2c3ccccc3nc(-c3cccc4ccccc34)c2n2ccccc12 [compound 20]

The next lines start with the compound.

SMILES: COc1ccc(-c2c3c(cc4ccccn43)c3ccccc3[n+]2CCCl)cc1 [IQ 6-S2-Cl, 5-(2-chloroethyl)-6-(4-methoxyphenyl)indolizino[3,2-c]quinolin-5-ium trifluoromethanesulfonate]
- solvent-dependent (environment-sensitive) tendency of the emission: hardly showed an environment-sensitive optical characteristic
- λex(nm) (Table 6): 464 nm

SMILES: CCCCn1cc(-c2c3c4ccccc4nc(-c4ccc(OC)cc4)c3n3ccccc23)nn1 [IQ 6-T, 12-(1-butyl-1H-1,2,3-triazol-4-yl)-6-(4-methoxyphenyl)indolizino[3,2-c]quinoline]
- λex(nm) (Table 6): 403 nm

SMILES: COc1ccc(-c2nc3ccccc3c3c(-c4cn(CCOCCOCCOCCNC(=O)CCCCCC5[C@H]6NC(=O)N[C@H]6C[S+]5[O-])nn4)c4ccccn4c23)cc1 (stereo partly drawn) [IQ 6-T-B, N-(2-(2-(2-(2-(4-(6-(4-methoxyphenyl)indolizino[3,2-c]quinolin-12-yl)-1H-1,2,3-triazol-1-yl)ethoxy)ethoxy)ethoxy)ethyl)-6-((3aS,6aR)-5-oxido-2-oxohexahydro-1H-thieno[3,4-d]imidazol-4-yl)hexanamide]
- λex(nm) (Table 6): 437 nm

SMILES: COC(=O)c1c2c3ccccc3nc(-c3ccc[nH]3)c2n2ccccc12 [IQ 21, Methyl 6-(1H-pyrrol-2-yl)indolizino[3,2-c]quinoline-12-carboxylate]
- solvent-dependent (environment-sensitive) tendency of the emission: blue-shift
- peak emission (λmax): 433 nm

SMILES: CCOC(=O)c1c2c3ccccc3nc(-c3ccc([N+](=O)[O-])cc3)c2n2ccccc12 [IQ 26, ethyl 6-(4-nitrophenyl)indolizino[3,2-c]quinoline-12-carboxylate]
- fluorescence (intensity, in words): did not induce fluorescence

SMILES: CCOC(=O)c1c2c3ccccc3nc(-c3cccc(F)c3)c2n2ccccc12 [IQ 28, ethyl 6-(3-fluorophenyl)indolizino[3,2-c]quinoline-12-carboxylate]
- solvent-dependent (environment-sensitive) tendency of the emission: solvatochromic effect

SMILES: CCOC(=O)c1c2c3ccccc3nc(-c3ccc(OC)c(OC)c3)c2n2ccccc12 [IQ 30, ethyl 6-(3,4-dimethoxyphenyl)indolizino[3,2-c]quinoline-12-carboxylate]
- solvent-dependent (environment-sensitive) tendency of the emission: solvatochromic effect

SMILES: C#Cc1c2c3ccccc3nc(-c3ccc(OC)cc3)c2n2ccccc12 [IQ 55, 12-ethynyl-6-(4-methoxyphenyl)indolizino[3,2-c]quinoline]
- solvent-dependent (environment-sensitive) tendency of the emission: hardly showed an environment-sensitive optical characteristic

SMILES: COc1ccc(-c2nc3ccccc3c3cc4cc(C#N)ccn4c23)cc1 [IQ 67, 6-(4-methoxyphenyl)indolizino[3,2-c]quinoline-10-carbonitrile]
- fluorescence (intensity, in words): further high fluorescence intensity in an aqueous solution

SMILES: COc1ccc(-c2nc3ccccc3c3cc4c5ccccc5ccn4c23)cc1 [IQ 77, 6-(4-methoxyphenyl)benzo[7,8]indolizino[3,2-c]quinoline]
- fluorescence (intensity, in words): very high fluorescence intensity at a blue wavelength in EtOH and DMSO

SMILES: CCc1nc2ccccc2c2cc3c4ccccc4ccn3c12 [IQ 79, 6-ethylbenzo[7,8]indolizino[3,2-c]quinoline]
- fluorescence (intensity, in words): very high fluorescence intensity at a blue wavelength in EtOH and DMSO

SMILES: Nc1ccc(-c2nc3ccccc3c3cc4ccccn4c23)cc1 [IQ-B1, 4-(indolizino[3,2-c]quinolin-6-yl)aniline]
- solvent-dependent (environment-sensitive) tendency of the emission: high solvent-dependent (i.e., environment-sensitive) tendency

SMILES: Oc1ccc(-c2nc3ccccc3c3cc4ccccn4c23)cc1 [IQ-B2, 4-(indolizino[3,2-c]quinolin-6-yl)phenol]
- solvent-dependent (environment-sensitive) tendency of the emission: high solvent-dependent (i.e., environment-sensitive) tendency

SMILES: COc1ccc(-c2nc3ccccc3c3cc4cc(/C=C/n5ccnc5)ccn4c23)cc1 [IQ-B20, (E)-10-(2-(1H-imidazol-1-yl)vinyl)-6-(4-methoxyphenyl)indolizino[3,2-c]quinoline]
- fluorescence (intensity, in words): high fluorescence in other solvents as well as an aqueous solution

SMILES: Cc1cccn2c1cc1c3ccccc3nc(-c3ccc([N+](=O)[O-])cc3)c12 [compound 13]
- quantum yield (Φ) (DW, standard Rhodamine 6G): 0.000
- quantum yield (Φ) (EtOH, standard Coumarin 153): 0.000
- Relative fluorescence Emission Intensitynorm: 0.00

SMILES: COc1cc(OC)cc(-c2nc3ccccc3c3cc4c(C)cccn4c23)c1 [compound 16]
- quantum yield (Φ) (DW, standard Rhodamine 6G): 0.014
- quantum yield (Φ) (EtOH, standard Coumarin 153): 0.672
- Fluorescence Emission Intensity: 11.7
- Peak emission wavelength λmax em(nm): 535 nm
- Relative fluorescence Emission Intensitynorm: 0.05
